Experimental data: paper PMC4487512 (Biochemical pharmacology, 2009)
Marks after values point to notes of the source that are not given here. One block for each compound: values may come before it.

Experiments:
[1] = test system: cryopreserved human hepatocytes; conditions: for HμREL clearance CLhurel: flow 4.5 μL/min/chip, 30,000 hepatocytes per chamber, 100 μL; for Depletion of the parent compound, HμREL device: human hepatocytes under flow, at 24 h
[2] = test system: cryopreserved human hepatocytes; conditions: at 24 h
[3] = human, known in vivo clearance values; ref literature (citation not given); cited from earlier work

SMILES: Cn1c(=O)c2c(ncn2C)n(C)c1=O [Caffeine, caffeine]
- Depletion of the parent compound, static culture system [2]: did not show significant depletion
- HμREL clearance CLhurel [1]: 0.01^a μL/min/chip
- Depletion of the parent compound, HμREL device [1]: did not show significant depletion

SMILES: NC(=O)N1c2ccccc2C=Cc2ccccc21 [Carbamazepine, carbamazepine]
- Depletion of the parent compound, static culture system [2]: did not show significant depletion
- In vivo clearance [3]: 1.3 ± 0.5 mL/min/kg
- Depletion of the parent compound, HμREL device [1]: did not show significant depletion

SMILES: CCCc1nn(C)c2c(=O)[nH]c(-c3cc(S(=O)(=O)N4CCN(C)CC4)ccc3OCC)nc12 [Sildenafil, sildenafil]
- In vivo clearance [3]: 6.0 ± 1.1 mL/min/kg
- HμREL clearance CLhurel [1]: 1.13 μL/min/chip

Now from value to compound, other results behind:

- HμREL clearance CLhurel [1]: 3.13 μL/min/chip
SMILES: O=C1CC2(CCCC2)CC(=O)N1CCCCN1CCN(c2ncccn2)CC1 [Buspirone, buspirone]

- HμREL clearance CLhurel [1]: 0.35 μL/min/chip
SMILES: CC(C)(C)NC[C@H](O)COc1nsnc1N1CCOCC1 [Timolol, timolol]
- In vivo clearance [3]: 7.7 ± 1.2 mL/min/kg
